target: T1, PD-1/PD-L1 interaction (PD-1-Ig / PD-L1-His) (Homo sapiens, UniProt Q9NZQ7); assay: PD-1/PD-L1 Homogenous Time-Resolved Fluorescence (HTRF) binding assay; conditions: IC50 range class; PD-L1-His 10 nM, PD-1-Ig 20 nM; read-out: Range or IC50
T1 construct: hPDL1(18-239)-TVMV-His; TVMV protease site linker (C); made in house; host or cells: HEK293T
From the text: The ability of the compounds of formula (I) to bind to PD-L1 was investigated using a PD-1/PD-L1 Homogenous Time-Resolved Fluorescence (HTRF) binding assay.
Homogenous Time-Resolved Fluorescence (HTRF) Binding Assay.
The interaction of PD-1 and PD-L1 can be assessed using soluble, purified preparations of the extracellular domains of the two proteins. The PD-1 and PD-L1 protein extracellular domains were expressed as fusion proteins with detection tags, for PD-1, the tag was the Fc portion of Immunoglobulin (PD-1-Ig) and for PD-L1 it was the 6 histidine motif (PD-L1-His). All binding studies were performed in an HTRF assay buffer consisting of dPBS supplemented with 0.1% […] bovine serum albumin and 0.05% (v/v) Tween-20. For the h/PD-L1-His binding assay, inhibitors were pre-incubated with PD-L1-His (10 nM final) for 15 m in 4 μl of assay buffer, followed by addition of PD-1-Ig (20 nM final) in 1 μl of assay buffer and further incubation for 15 m. HTRF detection was achieved using europium crypate-labeled anti-Ig (1 nM final) and allophycocyanin (APC) labeled anti-His (20 nM final). Antibodies were diluted in HTRF detection buffer and 5 μl was dispensed on top of the binding reaction. […] Additional binding assays were established between the human proteins PD-1-Ig/PD-L2-His (20 & 5 nM, respectively) and CD80-His/PD-L1-Ig (100 & 10 nM, respectively). […]

T1 sequence (Q9NZQ7 with tags, fused parts or gaps): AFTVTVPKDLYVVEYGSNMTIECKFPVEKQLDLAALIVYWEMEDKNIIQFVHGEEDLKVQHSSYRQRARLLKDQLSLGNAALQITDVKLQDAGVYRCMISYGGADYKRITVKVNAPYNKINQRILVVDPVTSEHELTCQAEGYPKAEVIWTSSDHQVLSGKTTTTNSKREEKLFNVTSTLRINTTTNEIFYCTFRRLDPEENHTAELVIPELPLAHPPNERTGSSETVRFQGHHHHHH

First: Cc1c(OCCCN[C@@H](CO)c2ccccc2)cccc1-c1cccc(OCCCN2CC[C@@H](O)C2)c1C [Example 2069, (R)-1-(3-((3′-(3-(((R)-2-hydroxy-1-phenylethyl)amino)propoxy)-2,2′-dimethyl-[1,1′-biphenyl]-3-yl)oxy)propyl)pyrrolidin-3-ol]
Second: Cc1c(OCCCN[C@@H](c2ccccc2)[C@H](O)CO)cccc1-c1cccc(OCCCN2CC[C@@H](O)C2)c1C [Example 2091, (2S,3S)-3-((3-((3′-(3-((R)-3-hydroxypyrrolidin-1-yl)propoxy)-2,2′-dimethyl-[1,1′-biphenyl]-3-yl)oxy)propyl)amino)-3-phenylpropane-1,2-diol]
The IC50 of the first is higher: 90.1 to 1000 nM for the first, 20.1 to 90 nM for the second.

`N#Cc1cncc(COc2cc(OCc3cccc(-c4cccc(COc5cc(OCc6cncc(C#N)c6)c(C(=O)NC6CC6)cc5Cl)c4Cl)c3Cl)c(Cl)cc2C(=O)O)c1` [Example 90020] and `N#Cc1cncc(COc2cc(OCc3cccc(-c4cccc(COc5cc(OCc6cncc(C#N)c6)c(C(=O)N6CCOCC6)cc5Cl)c4Cl)c3Cl)c(Cl)cc2C(=O)N2CCOCC2)c1` [Example 80050] fall in the same range of IC50: 20.1 to 90 nM for the first, 20.1 to 90 nM for the second.

First: Cc1c(OCCCN[C@H](CO)C(C)C)cccc1-c1cccc(OCCCN2CC[C@@H](O)C2)c1C [Example 2058, (R)-1-(3-((3′-(3-(((S)-1-hydroxy-3-methylbutan-2-yl)amino)propoxy)-2,2′-dimethyl-[1,1′-biphenyl]-3-yl)oxy)propyl)pyrrolidin-3-ol]
Second: Cc1c(OCCCNCCO)cccc1-c1cccc(OCCCN2CC[C@@H](O)C2)c1C [Example 2014, (R)-1-(3-((3′-(3-((2-hydroxyethyl)amino)propoxy)-2,2′-dimethyl-[1,1′-biphenyl]-3-yl)oxy)propyl)pyrrolidin-3-ol]
The IC50 of the first is higher: 90.1 to 1000 nM for the first, 20.1 to 90 nM for the second. The second is the more potent here.

`Cc1c(COc2cc(OCc3cncc(C#N)c3)c(CN(CCC(C)C)C(CCO)C(=O)O)cc2Cl)cccc1-c1cccc(COc2cc(OCc3cncc(C#N)c3)c(CN(CCC(C)C)C(CCO)C(=O)O)cc2Cl)c1C` (centres unmarked) [Example 41010] and `Cc1c(COc2cc(OCc3cncc(C#N)c3)c(CN[C@@H](CCO)C(=O)O)cc2Cl)cccc1-c1cccc(COc2cc(OCc3cncc(C#N)c3)c(CN[C@@H](CCO)C(=O)O)cc2Cl)c1C` [Example 40740] fall in the same range of IC50: 0.04 to 20 nM for the first, 0.04 to 20 nM for the second.

`Cc1c(OCCCNCCc2ncn(C)c2Cl)cccc1-c1cccc(OCCCN2CC[C@@H](O)C2)c1C` [Example 2061] and `Cc1c(OCCCNCCc2ccccn2)cccc1-c1cccc(OCCCN2CC[C@@H](O)C2)c1C` [Example 2118, (R)-1-(3-((2,2′-dimethyl-3′-(3-((2-(pyridin-2-yl)ethyl)amino)propoxy)-[1,1′-biphenyl]-3-yl)oxy)propyl)pyrrolidin-3-ol] fall in the same range of IC50: 20.1 to 90 nM for the first, 20.1 to 90 nM for the second.

`Cc1cc(OCc2cccc(-c3cccc(COc4cc(OCc5cncc(C#N)c5)c(CN5CCCC[C@H]5C(=O)O)cc4Cl)c3C)c2C)c(Cl)cc1CN1CCCC[C@H]1C(=O)O` [Example 5503, (S)-1-(4-((3′-((4-(((S)-2-carboxypiperidin-1-yl)methyl)-2-chloro-5-((5-cyanopyridin-3-yl)methoxy)phenoxy)methyl)-2,2′-dimethyl-[1,1′-biphenyl]-3-yl)methoxy)-5-chloro-2-methylbenzyl)piperidine-2-carboxylic acid] and `N#Cc1cncc(COc2cc(OCc3cccc(-c4cccc(COc5cc(OCc6cncc(C#N)c6)c(CN6CCCC[C@H]6C(=O)O)cc5Cl)c4)c3)c(Cl)cc2CN2CCCC[C@H]2C(=O)O)c1` [Example 40050] fall in the same range of IC50: 0.04 to 20 nM for the first, 0.04 to 20 nM for the second.

`Cc1c(OCCCN[C@H]2CC[C@H](O)CC2)cccc1-c1cccc(OCCCN2CC[C@@H](O)C2)c1C` [Example 2017, (R)-1-(3-((3′-(3-(((1r,4r)-4-hydroxycyclohexyl)amino)propoxy)-2,2′-dimethyl-[1,1′-biphenyl]-3-yl)oxy)propyl)pyrrolidin-3-ol] and `Cc1c(OCCCN2CC[C@@H](O)C2)cccc1-c1cccc(OCCCN2CCC[C@H](O)C2)c1C` [Example 2115, (S)-1-(3-((3′-(3-((R)-3-hydroxypyrrolidin-1-yl)propoxy)-2,2′-dimethyl-[1,1′-biphenyl]-3-yl)oxy)propyl)piperidin-3-ol] fall in the same range of IC50: 20.1 to 90 nM for the first, 20.1 to 90 nM for the second.

First: Cc1cc(OCc2cccc(-c3cccc(COc4cc(OCc5cncc(C#N)c5)c(CNCCC(=O)O)cc4Cl)c3C)c2C)c(Cl)cc1CNCCC(=O)O [Example 5504, 3-((4-((3′-((4-(((2-carboxyethyl)amino)methyl)-2-chloro-5-((5-cyanopyridin-3-yl)methoxy)phenoxy)methyl)-2,2′-dimethyl-[1,1′-biphenyl]-3-yl)methoxy)-5-chloro-2-methylbenzyl)amino)propanoic acid]
Second: COC(=O)CC(O)CNCc1cc(Cl)c(OCc2cccc(-c3cccc(COc4cc(OCc5cncc(C#N)c5)c(CNC/C=C\C(=O)O)cc4Cl)c3C)c2C)cc1OCc1cncc(C#N)c1 (centres unmarked) [Example 40720]
The IC50 of the first is lower: 0.04 to 20 nM for the first, 20.1 to 90 nM for the second.

First: Cc1c(OCCCN[C@H](CO)[C@H](O)c2ccccc2)cccc1-c1cccc(OCCCN[C@H](CO)[C@H](O)c2ccccc2)c1C [Example 2097]
Second: Cc1c(OCCCNC[C@@H](O)c2ccccc2)cccc1-c1cccc(OCCCN2CC[C@@H](O)C2)c1C [Example 2113, (R)-1-(3-((3′-(3-(((S)-2-hydroxy-2-phenylethyl)amino)propoxy)-2,2′-dimethyl-[1,1′-biphenyl]-3-yl)oxy)propyl)pyrrolidin-3-ol]
The IC50 of the first is higher: 90.1 to 1000 nM for the first, 20.1 to 90 nM for the second.

`COc1ccccc1N1CCN(CCCOc2cccc(-c3cccc(OCCCN4CC[C@@H](O)C4)c3C)c2C)CC1` [Example 2111, (R)-1-(3-((3′-(3-(4-(2-methoxyphenyl)piperazin-1-yl)propoxy)-2,2′-dimethyl-[1,1′-biphenyl]-3-yl)oxy)propyl)pyrrolidin-3-ol] and `Cc1c(OCCCN(C)Cc2ccccn2)cccc1-c1cccc(OCCCN2CC[C@@H](O)C2)c1C` [Example 2062, (R)-1-(3-((2,2′-dimethyl-3′-(3-(methyl(pyridin-2-ylmethyl)amino)propoxy)-[1,1′-biphenyl]-3-yl)oxy)propyl)pyrrolidin-3-ol] fall in the same range of IC50: 20.1 to 90 nM for the first, 20.1 to 90 nM for the second.

Compared with `Cc1c(OCCCN2CC[C@@H](O)C2)cccc1-c1ccc2c(c1)OC(CCN1CC[C@@H](O)C1)CO2` (single isomer, unassigned) [Example 3030], `Cc1cc(OCCCN2CC[C@@H](O)C2)ccc1-c1ccc(OCCCN2CC[C@@H](O)C2)cc1C` [Example 3012, (3R,3′R)-1,1′-(((2,2′-dimethyl-[1,1′-biphenyl]-4,4′-diyl)bis(oxy))bis(propane-3,1-diyl))bis(pyrrolidin-3-ol)] is higher in IC50: 0.04 to 20 nM for the first, > 10000 nM for the second.

`Cc1cc(CN2CCCC[C@H]2C(=O)O)ccc1OCc1cccc(-c2cccc(COc3ccc(CN4CCCC[C@H]4C(=O)O)cc3C)c2C)c1C` [Example 5500, (2S,2′S)-1,1′-(((((2,2′-dimethyl-[1,1′-biphenyl]-3,3′-diyl)bis(methylene))bis(oxy))bis(3-methyl-4,1-phenylene))bis(methylene))bis(piperidine-2-carboxylic acid)] and `Cc1c(COc2cc(OCc3cncc(C#N)c3)c(CO)cc2Cl)cccc1-c1cccc(COc2cc(OCc3cncc(C#N)c3)c(CNC(CO)CO)cc2Cl)c1C` [Example 2129, 5-((4-chloro-5-((3′-((2-chloro-5-((5-cyanopyridin-3-yl)methoxy)-4-(((1,3-dihydroxypropan-2-yl)amino)methyl)phenoxy)methyl)-2,2′-dimethyl-[1,1′-biphenyl]-3-yl)methoxy)-2-(hydroxymethyl)phenoxy)methyl)nicotinonitrile] fall in the same range of IC50: 90.1 to 1000 nM for the first, 90.1 to 1000 nM for the second.

`Cc1c(OCCCNCC(O)CO)cccc1-c1cccc(OCCCN2CC[C@@H](O)C2)c1C` (mixture of isomers) [Example 2059, 3-((3-((3′-(3-((R)-3-hydroxypyrrolidin-1-yl)propoxy)-2,2′-dimethyl-[1,1′-biphenyl]-3-yl)oxy)propyl)amino)propane-1,2-diol] and `Cc1c(OCCCNCCc2cccnc2)cccc1-c1cccc(OCCCNCCc2cccnc2)c1C` [Example 2086, 3,3′-((2,2′-dimethyl-[1,1′-biphenyl]-3,3′-diyl)bis(oxy))bis(N-(2-(pyridin-3-yl)ethyl)propan-1-amine)] fall in the same range of IC50: 0.04 to 20 nM for the first, 0.04 to 20 nM for the second.

same assay, conditions: numeric IC50; PD-L1-His 10 nM, PD-1-Ig 20 nM; read-out: Range or IC50

Point of comparison: `Cc1c(COc2cc(OCc3cncc(C#N)c3)c(CO)cc2Cl)cccc1-c1cccc(COc2cc(OCc3cncc(C#N)c3)c(CNC(C(=O)O)C(=O)O)cc2Cl)c1C` [Example 50270], IC50 23 nM. Against it:
- Cc1c(OCCCN2CC[C@@H](O)C2)cccc1-c1cccc(S(=O)(=O)NCCCN(C)C)c1C [Example 3010, (R)—N-(3-(dimethylamino)propyl)-3′-(3-(3-hydroxypyrrolidin-1-yl)propoxy)-2,2′-dimethyl-[1,1′-biphenyl]-3-sulfonamide] — 430-fold higher, 10000 nM
- Cc1c(COc2cc(OCc3cncc(C#N)c3)c(CN[C@@H](CCO)C(=O)O)cc2Cl)cccc1-c1cccc(COc2cc(OCc3cncc(C#N)c3)c(CN[C@H](CCO)C(=O)O)cc2Cl)c1C [Example 40770] — 580-fold lower, 0.04 nM
